Results as given in patent US20040191208A1, “Cosmetic composition for men's skin care and hair care” (Laboratoires Clarins, a corporation of France, priority 2001, published 2004).

What was measured:
[1] = system: synthesis of prostaglandins (PGE2); test: PGE2 synthesis induced by PMA in cultured keratinocytes (approach 2), ELISA, evaluating inhibition of cyclooxygenase; assay type: cell-based, human; details: indomethacin 1 μM
From the text: (§1) In the initial steps of the induction of inflammation, the arachidonic acid stored in the cell membranes is liberated. Once the arachidonic acid has been liberated, it can follow different metabolic pathways. The pathways include: the cyclooxygenase enzyme pathway which leads to the prostaglandins, and the lipoxygenase enzyme pathway which leads to the leukotrienes. The anti-inflammatory activity of purslane extract was, therefore, tested in vitro by evaluating the inhibition of cyclooxygenase. The ELISA-based test employed made it possible to monitor the synthesis of prostaglandins (PGE2) in cultures of human keratinocytes. The cells were used at subconfluence with a cellular multiplication and an active metabolic activity. Two approaches were employed: approach 1: synthesis of the PGE2 intrinsic to the cultured cells; and approach 2: synthesis of the PGE2 induced chemically by PMA (phorbol myristate acetate), an inflammatory agent. Normal human keratinocytes were cultured at 37° C. for 48 hours in a defined medium in the presence of the following products: approach 1: -purslane extract (0.1%, 0.5%, 1% and 3% vol/vol) - aspirin 100 μM (anti-inflammatory, reference compound) approach 2: - purslane extract (0.1%, 0.5%, 1% and 3% vol/vol) - indomethacin 1 μM (anti-inflammatory, reference compound) - stimulation with PMA 1 μg/ml (after 24 hours of incubation). At the end of 48 hours, the different media were collected for quantitative determination of the PGE2. The protective capacity against the liberation of prostaglandins induced by the pro-inflammatory agent PMA was studied using approach 2.

[2] = system: synthesis of prostaglandins (PGE2); test: PGE2 synthesis intrinsic to cultured keratinocytes (approach 1), ELISA, evaluating inhibition of cyclooxygenase; assay type: cell-based, human; details: aspirin 100 μM
From the text: as §1, with “PGE2.” for “PGE2. The protective capacity against the liberation of prostaglandins induced by the pro-inflammatory agent PMA was studied using approach 2.”

SMILES	inhibition at 1 µM ([1]; Homo sapiens, Keratinocyte, PMA-induced PGE2, read-out: % inhibition of the liberation of PGE2) [%]	% control ([1]; PGE2 relative to control, PMA-induced) [%]	Pg PGE2/mg prot ([1]; PMA 1 μg/ml stimulation after 24 h, 48 h) [Pg PGE2/mg prot]	% inhibition of the liberation of PGE2 ([1]; PMA-induced PGE2) [%]	inhibition at 100 µM ([2]; Homo sapiens, Keratinocyte, intrinsic PGE2, 48 h, read-out: % inhibition of the liberation of PGE2) [%]	% control ([2]; PGE2 relative to control, intrinsic PGE2, 48 h) [%]	Pg PGE2/mg prot ([2]; normal human keratinocytes, 48 h, intrinsic PGE2) [Pg PGE2/mg prot]
COc1ccc2c(c1)c(CC(=O)O)c(C)n2C(=O)c1ccc(Cl)cc1 [Indomethacin, indomethacin]	80	21.0	1683.9	79.0	–	–	–
CC(=O)Oc1ccccc1C(=O)O [Aspirin, aspirin]	–	–	–	–	60.3	39.7	1968.2
